The values that follow come from ChEMBL document CHEMBL1141891, “Crystallographic determination of stereochemistry of biologically active 2'',3''-dibromo-7-epi-10-deacetylcephalomannine” (Bioorg Med Chem Lett, 2005).

≈ marks a conversion by molar mass, not a printed value.

Holding throughout (assay type): functional, cell-based
The test system of one assay is A2780. The assay is described as follows: Inhibitory concentration against A2780 proliferation after 72 hr. The settings on record: Homo sapiens, A2780, 72 h.
Another assay has as its system MCF7. Kind of assay: Inhibitory concentration required to inhibit MCF-7 Cell line growth on continuous exposure time of 72 h. The settings on record: Homo sapiens, MCF7, 72 h.
A further assay relates to A549. Kind of assay: Inhibitory concentration required to inhibit A549 Cell line growth on continuous exposure time of 72 h. The settings on record: Homo sapiens, A549, 72 h.

Broadly, the IC50 is the concentration needed to halve the response being measured. High values mean lower potency, low ones higher potency. The compound `CC(=O)O[C@H]1C(=O)[C@@]2(C)[C@H]([C@H](OC(=O)c3ccccc3)[C@]3(O)C[C@H](OC(=O)[C@H](O)[C@@H](NC(=O)c4ccccc4)c4ccccc4)C(C)=C1C3(C)C)[C@]1(OC(C)=O)CO[C@@H]1C[C@@H]2O` [PACLITAXEL] showed a concentration for half-maximal inhibition (IC50) in the assay on A2780 of 6.76 ng/mL (≈ 7.92 nM).
In the case of `CC(=O)O[C@@]12CO[C@@H]1C[C@@H](O)[C@@]1(C)C(=O)[C@H](O)C3=C(C)[C@@H](OC(=O)[C@H](O)[C@@H](NC(=O)[C@@](C)(Br)[C@H](C)Br)c4ccccc4)C[C@@](O)([C@@H](OC(=O)c4ccccc4)C12)C3(C)C` (some centres not stated), the results for the half-maximal inhibitory concentration (IC50) with A2780, with MCF7 and in the assay with A549 were 2.13 ng/mL (≈ 2.24 nM), 4.75 ng/mL (≈ 5 nM) and 13 ng/mL (≈ 13.7 nM), respectively.
For `CC(=O)O[C@@]12CO[C@@H]1C[C@@H](O)[C@@]1(C)C(=O)[C@H](O)C3=C(C)[C@@H](OC(=O)[C@H](O)[C@@H](NC(=O)[C@](C)(Br)[C@@H](C)Br)c4ccccc4)C[C@@](O)([C@@H](OC(=O)c4ccccc4)C12)C3(C)C` (some centres not stated), the results for the IC50 in the assay on A2780, with MCF7 and in the assay on A549 were 4.84 ng/mL (≈ 5.1 nM), 7.1 ng/mL (≈ 7.48 nM) and 26.9 ng/mL (≈ 28.3 nM), respectively.
